Measurements as given in ChEMBL document CHEMBL5576124, “Discovery of an Exceptionally Orally Bioavailable and Potent HPK1 PROTAC with Enhancement of Antitumor Efficacy of Anti-PD-L1 Therapy” (J Med Chem, 2024).
Calls of active or inactive are those of the source. No cut-off for these calls is given here.

Key:
[1] = Half life in Sprague-Dawley rat at 10 mg/kg,po measured upto 24 hrs by LC-MS analysis; assay type: ADME, organism-based; conditions: in vivo
[2] = Stability in mouse liver microsomes assessed as parent compound remaining measured after 5 mins; assay type: ADME, Microsome; conditions: read-out: Stability
[3] = target: T1, Protein cereblon/Mitogen-activated protein kinase kinase kinase kinase 1 (Homo sapiens, UniProt Q92918+Q96SW2); assay: PROTAC activity at CRBN/HPK1 in human Jurkat cells assessed as maximal degradation of HPK1 protein incubated for 24 hrs by Western blotting analysis relative to control; assay type: cell-based
[4] = Stability in mouse liver microsomes assessed as parent compound remaining measured after 15 mins; assay type: ADME, Microsome; conditions: read-out: Stability
Jurkat [5] = assay: Immunostimulatory activity in anti-CD3/CD28 induced human Jurkat cells assessed as upregulation of ERK phosphorylation by Western blotting analysis; assay type: functional, cell-based
[6] = Stability in human liver microsomes assessed as parent compound remaining measured after 15 mins; assay type: ADME, Microsome; conditions: read-out: Stability
[7] = AUC (0 to t) in ICR mouse at 10 mg/kg,po measured upto 24 hrs by LC-MS analysis; assay type: ADME, organism-based; conditions: in vivo
Jurkat [8] = assay: Immunostimulatory activity in anti-CD3/CD28 induced human Jurkat cells assessed as increase in IFN-gamma release incubated for 24 hrs by ELISA; assay type: functional, cell-based
[9] = Cmax in ICR mouse at 10 mg/kg,po measured upto 24 hrs by LC-MS analysis; assay type: ADME, organism-based; conditions: in vivo
CT26 [10] = assay: Antitumor activity against mouse CT26 cells implanted BALB/c mouse model assessed as tumor growth inhibition at 25 mg/kg,po administrated once daily for 15 days relative to control; assay type: functional; conditions: CT26, 360 h, time 15 day, read-out: TGI
[11] = target: T1, Protein cereblon/Mitogen-activated protein kinase kinase kinase kinase 1; assay: PROTAC activity at CRBN/HPK1 in human Jurkat cells assessed as degradation of HPK1 protein at 1 uM preincubated with thalidomide followed by compound addition incubated for 24 hrs by Western blotting analysis; assay type: cell-based
[12] = AUC (0 to t) in ICR mouse at 1 mg/kg,iv measured upto 24 hrs by LC-MS analysis; assay type: ADME, organism-based; conditions: in vivo
[13] = Stability in human liver microsomes assessed as parent compound remaining measured after 30 mins; assay type: ADME, Microsome; conditions: read-out: Stability
CT26 [14] = assay: Antitumor activity against mouse CT26 cells implanted BALB/c mouse model assessed as tumor growth inhibition at 25 mg/kg,po administrated once daily for 15 days in presence of anti-PD-L1 antibody relative to control; assay type: functional; conditions: CT26, 360 h, time 15 day, read-out: TGI
[15] = target: T1, Protein cereblon/Mitogen-activated protein kinase kinase kinase kinase 1; assay: PROTAC activity at CRBN/HPK1 in human Jurkat cells assessed as degradation of HPK1 protein at 1 uM preincubated with MG132 followed by compound addition incubated for 24 hrs by Western blotting analysis; assay type: cell-based
[16] = Metabolic stability in human liver microsomes assessed as intrinsic clearance; assay type: ADME, Microsome; conditions: read-out: CLH
[17] = Metabolic stability in mouse liver microsomes assessed as intrinsic clearance; assay type: ADME, Microsome; conditions: read-out: CLH
Jurkat [18] = assay: Immunostimulatory activity in anti-CD3/CD28 induced human Jurkat cells assessed as upregulation of ERK expression by Western blotting analysis; assay type: functional, cell-based
[19] = Metabolic stability in mouse liver microsomes assessed as microsomal intrinsic clearance; assay type: ADME, Microsome; conditions: read-out: CLH
[20] = Metabolic stability in mouse liver microsomes assessed as hepatic extraction ratio; assay type: ADME, Microsome; conditions: read-out: ERH
Jurkat [21] = assay: Immunostimulatory activity in anti-CD3/CD28 induced human Jurkat cells assessed as increase in IL-2 release at 10 to 10000 nM incubated for 24 hrs in presence of PGE2 and NECA by ELISA; assay type: functional, cell-based; conditions: dose 10-10000 nM
[22] = target: T1, Protein cereblon/Mitogen-activated protein kinase kinase kinase kinase 1; assay: PROTAC activity at CRBN/HPK1 in human Jurkat cells assessed as downregulation of KHS expression by Western blotting analysis; assay type: cell-based
[23] = target: T1, Protein cereblon/Mitogen-activated protein kinase kinase kinase kinase 1; assay: PROTAC activity at CRBN/HPK1 in human Jurkat cells assessed as downregulation of PFDN5 expression by Western blotting analysis; assay type: cell-based
Jurkat [24] = assay: Immunostimulatory activity in anti-CD3/CD28 induced human Jurkat cells assessed as increase in IL-2 release incubated for 24 hrs by ELISA; assay type: functional, cell-based
[25] = Stability in human liver microsomes assessed as parent compound remaining measured after 60 mins; assay type: ADME, Microsome; conditions: read-out: Stability
[26] = Cmax in ICR mouse at 1 mg/kg,iv measured upto 24 hrs by LC-MS analysis; assay type: ADME, organism-based; conditions: in vivo
Jurkat [27] = assay: Immunostimulatory activity in anti-CD3/CD28 induced human Jurkat cells assessed as upregulation of JNK phosphorylation by Western blotting analysis; assay type: functional, cell-based
[28] = target: T1, Protein cereblon/Mitogen-activated protein kinase kinase kinase kinase 1; assay: PROTAC activity at CRBN/HPK1 in human Jurkat cells assessed as upregulation of GCK expression by Western blotting analysis; assay type: cell-based
[29] = target: T1, Protein cereblon/Mitogen-activated protein kinase kinase kinase kinase 1; assay: PROTAC activity at CRBN/HPK1 in human Jurkat cells assessed as degradation of HPK1 protein at 1 uM preincubated with 4-(2-(2,5-Dimethyl-1,2,3,4-tetrahydroisoquinolin-7-y1)-5H-pyrrolo[2,3-bipyrazin-7-y1)-N,N,2-trimethylbenzamide followed by compound addition incubated for 24 hrs by Western blotting analysis; assay type: cell-based
[30] = Metabolic stability in human liver microsomes assessed as microsomal intrinsic clearance; assay type: ADME, Microsome; conditions: read-out: CLH
[31] = Stability in human liver microsomes assessed as parent compound remaining; assay type: ADME, Microsome
[32] = Bioavailability in ICR mouse at 10 mg/kg,po or 1 mg/kg,iv measured upto 24 hrs by LC-MS analysis; assay type: ADME, organism-based; conditions: in vivo
Jurkat [33] = assay: Immunostimulatory activity in anti-CD3/CD28 induced human Jurkat cells assessed as downregulation of SLP76 phosphorylation by Western blotting analysis; assay type: functional, cell-based
[34] = Cmax in Sprague-Dawley rat at 10 mg/kg,po measured upto 24 hrs by LC-MS analysis; assay type: ADME, organism-based; conditions: in vivo
[35] = target: T1, Protein cereblon/Mitogen-activated protein kinase kinase kinase kinase 1; assay: PROTAC activity at CRBN/HPK1 in human Jurkat cells assessed as upregulation of PCGF6 expression by Western blotting analysis; assay type: cell-based
[36] = target: T1, Protein cereblon/Mitogen-activated protein kinase kinase kinase kinase 1; assay: PROTAC activity at CRBN/HPK1 in human Jurkat cells assessed as upregulation of HGK expression by Western blotting analysis; assay type: cell-based
[37] = target: T1, Protein cereblon/Mitogen-activated protein kinase kinase kinase kinase 1; assay: PROTAC activity at CRBN/HPK1 in human Jurkat cells assessed as degradation of HPK1 protein by Western blotting analysis; assay type: cell-based
Jurkat [38] = assay: Immunostimulatory activity in anti-CD3/CD28 induced human Jurkat cells assessed as increase in IFN-gamma at 10 to 10000 nM incubated for 24 hrs in presence of PGE2 and NECA by ELISA; assay type: functional, cell-based; conditions: dose 10-10000 nM
[39] = target: T1, Protein cereblon/Mitogen-activated protein kinase kinase kinase kinase 1; assay: PROTAC activity at CRBN/HPK1 in human Jurkat cells assessed as downregulation of GLK expression by Western blotting analysis; assay type: cell-based
[40] = target: T1, Protein cereblon/Mitogen-activated protein kinase kinase kinase kinase 1; assay: PROTAC activity at CRBN/HPK1 in human Jurkat cells assessed as maximal degradation of HPK1 protein at 1 uM incubated for 24 hrs by Western blotting analysis relative to control; assay type: cell-based
[41] = Stability in human liver microsomes assessed as parent compound remaining measured after 5 mins; assay type: ADME, Microsome; conditions: read-out: Stability
T-cell line = assay: Immunostimulatory activity in human T cell assessed as increase in IL-2 secretion; assay type: functional, cell-based
[42] = Tmax in Sprague-Dawley rat at 10 mg/kg,po measured upto 24 hrs by LC-MS analysis; assay type: ADME, organism-based; conditions: in vivo
Jurkat [43] = assay: Immunostimulatory activity in anti-CD3/CD28 induced human Jurkat cells assessed as upregulation of JNK expression by Western blotting analysis; assay type: functional, cell-based

T1 sequence (Q92918 whole entry, looked up): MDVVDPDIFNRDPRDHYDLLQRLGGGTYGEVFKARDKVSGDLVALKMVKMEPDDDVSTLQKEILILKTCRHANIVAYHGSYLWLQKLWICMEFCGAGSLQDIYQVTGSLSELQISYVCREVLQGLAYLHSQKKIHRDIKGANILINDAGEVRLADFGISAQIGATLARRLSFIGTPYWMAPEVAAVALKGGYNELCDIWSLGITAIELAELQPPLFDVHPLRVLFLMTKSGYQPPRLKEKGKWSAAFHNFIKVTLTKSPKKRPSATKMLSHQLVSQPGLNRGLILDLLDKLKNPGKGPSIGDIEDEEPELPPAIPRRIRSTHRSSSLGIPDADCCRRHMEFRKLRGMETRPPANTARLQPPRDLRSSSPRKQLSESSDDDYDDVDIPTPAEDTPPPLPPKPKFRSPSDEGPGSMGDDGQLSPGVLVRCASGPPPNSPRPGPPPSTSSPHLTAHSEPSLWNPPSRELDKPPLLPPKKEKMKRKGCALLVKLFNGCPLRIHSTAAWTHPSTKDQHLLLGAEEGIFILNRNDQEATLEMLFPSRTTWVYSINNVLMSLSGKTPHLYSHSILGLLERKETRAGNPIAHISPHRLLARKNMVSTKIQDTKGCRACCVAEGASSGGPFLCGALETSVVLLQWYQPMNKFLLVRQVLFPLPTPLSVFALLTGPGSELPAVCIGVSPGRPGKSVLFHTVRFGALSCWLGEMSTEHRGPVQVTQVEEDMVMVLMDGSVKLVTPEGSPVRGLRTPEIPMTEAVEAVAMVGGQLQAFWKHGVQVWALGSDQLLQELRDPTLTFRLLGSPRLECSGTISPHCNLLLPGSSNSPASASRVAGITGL
T1 sequence (Q96SW2 whole entry, looked up): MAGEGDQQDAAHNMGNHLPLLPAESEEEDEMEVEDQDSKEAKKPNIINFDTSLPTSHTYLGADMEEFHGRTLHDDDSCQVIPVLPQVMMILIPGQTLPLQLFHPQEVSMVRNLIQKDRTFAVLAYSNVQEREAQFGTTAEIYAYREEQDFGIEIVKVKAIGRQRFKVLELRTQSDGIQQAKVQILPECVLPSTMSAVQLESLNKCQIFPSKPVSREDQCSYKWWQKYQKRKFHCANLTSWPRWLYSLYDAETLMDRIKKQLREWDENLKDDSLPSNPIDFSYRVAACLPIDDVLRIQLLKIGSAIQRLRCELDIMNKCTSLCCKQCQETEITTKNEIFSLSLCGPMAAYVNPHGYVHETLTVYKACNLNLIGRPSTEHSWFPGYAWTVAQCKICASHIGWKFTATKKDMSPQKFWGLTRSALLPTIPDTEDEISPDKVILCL

SMILES: Cc1cc(-c2c[nH]c3ncc(-c4ccc(C5CCN(C6CN(c7ccc8c(c7)C(=O)N(C7CCC(=O)NC7=O)C8=O)C6)CC5)cc4)nc23)ccc1C(=O)N(C)C (centres undefined)
- half-life [1]: 6.58 h
- remaining at 5 min [2]: 100%
- Emax [3]: 80.5%
- remaining at 0.25 h [4]: 85.5%
- Activity (Jurkat [5]): Active
- remaining at 0.25 h [6]: 101%
- AUC(0-t) at 24 h [7]: 137000 ng·h/mL
- Activity (Jurkat [8]): Dose-Dependent Effect
- Cmax [9]: 10900 ng/mL
- inhibition in vivo at 25 mg/kg (CT26 [10]): 47.2%
- Activity [11]: Active
- AUC(0-t) at 24 h [12]: 16800 ng·h/mL
- remaining at 0.5 h [13]: 98.3%
- inhibition in vivo at 25 mg/kg (CT26 [14]): 65.6%
- Activity [15]: inactive
- microsomal CLint [16]: 1.4 µL/min/mg
- microsomal CLint [17]: 18.4 µL/min/mg
- Activity (Jurkat [18]): Active
- CLint scaled [19]: 16.6 mL/min/kg
- hepatic extraction ratio [20]: 0.444
- Activity (Jurkat [21]): inactive
- Activity [22]: Active
- Activity [23]: Active
- Activity (Jurkat [24]): Dose-Dependent Effect
- remaining at 1 h [25]: 94.5%
- Cmax [26]: 3000 ng/mL
- Activity (Jurkat [27]): Active
- Activity [28]: inactive
- Activity [29]: Active
- CLint scaled [30]: 5.54 mL/min/kg
- Stability [31]: 100%
- bioavailability [32]: 81.7%
- Activity (Jurkat [33]): Active
- Cmax [34]: 2090 ng/mL
- Activity [35]: Active
- Activity [36]: inactive
- Activity [37]: Active
- Activity (Jurkat [38]): inactive
- Activity [39]: Active
- Activity [40]: 100%
- remaining at 5 min [41]: 96.5%
- EC50 (T-cell line): 12.9 nM
- Tmax [42]: 1 h
- Activity (Jurkat [43]): Active
